Data on seven compounds can be found in ChEMBL document CHEMBL1152182, “Synthesis and structure-activity relationship of 7-azaindole piperidine derivatives as CCR2 antagonists” (Bioorg Med Chem Lett, 2008).

For series [1], the target named is C-C chemokine receptor type 2 (Homo sapiens, UniProt P41597). In words: Antagonist activity at human CCR2. It is filed as functional.
The target of the next series is T1, Cytochrome P450 1A2 (Homo sapiens, UniProt P05177).
T1 sequence (P05177 whole entry): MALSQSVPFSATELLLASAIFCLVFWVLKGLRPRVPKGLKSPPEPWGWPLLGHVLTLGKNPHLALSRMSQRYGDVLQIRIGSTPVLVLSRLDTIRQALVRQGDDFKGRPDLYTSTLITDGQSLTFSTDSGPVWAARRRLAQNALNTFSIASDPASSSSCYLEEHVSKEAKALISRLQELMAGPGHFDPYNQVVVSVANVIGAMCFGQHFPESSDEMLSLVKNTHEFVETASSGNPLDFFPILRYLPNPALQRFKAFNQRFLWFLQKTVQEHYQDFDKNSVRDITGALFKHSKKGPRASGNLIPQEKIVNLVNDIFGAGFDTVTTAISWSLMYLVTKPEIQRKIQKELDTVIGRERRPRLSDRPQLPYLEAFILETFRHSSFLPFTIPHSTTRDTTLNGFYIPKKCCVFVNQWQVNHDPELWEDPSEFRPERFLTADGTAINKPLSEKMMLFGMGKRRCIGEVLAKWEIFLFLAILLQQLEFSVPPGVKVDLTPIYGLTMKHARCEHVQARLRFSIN
In words: Inhibition of human CYP1A2. It counts as ADME.

The target of another series is Cytochrome P450 2D6 (Homo sapiens, UniProt P10635). Briefly: Inhibition of human CYP2D6. It is filed as ADME.
Chain of Cytochrome P450 2D6 (P10635 whole entry): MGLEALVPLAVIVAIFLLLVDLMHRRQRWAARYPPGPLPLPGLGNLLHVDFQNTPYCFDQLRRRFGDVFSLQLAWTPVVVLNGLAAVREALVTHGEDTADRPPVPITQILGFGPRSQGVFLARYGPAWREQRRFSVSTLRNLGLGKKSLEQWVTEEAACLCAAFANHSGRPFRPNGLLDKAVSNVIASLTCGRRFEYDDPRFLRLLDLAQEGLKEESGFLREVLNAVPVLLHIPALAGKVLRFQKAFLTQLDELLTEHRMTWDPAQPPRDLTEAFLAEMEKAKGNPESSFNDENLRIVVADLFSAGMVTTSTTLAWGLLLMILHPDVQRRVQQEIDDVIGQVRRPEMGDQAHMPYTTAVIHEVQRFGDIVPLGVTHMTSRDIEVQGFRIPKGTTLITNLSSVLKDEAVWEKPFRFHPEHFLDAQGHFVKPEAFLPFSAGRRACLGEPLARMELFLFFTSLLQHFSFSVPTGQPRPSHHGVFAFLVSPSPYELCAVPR
The target of a further series is Cytochrome P450 2C19 (Homo sapiens, UniProt P33261). Briefly: Inhibition of human CYP2C19. It counts as ADME.
Chain of Cytochrome P450 2C19 (P33261 whole entry): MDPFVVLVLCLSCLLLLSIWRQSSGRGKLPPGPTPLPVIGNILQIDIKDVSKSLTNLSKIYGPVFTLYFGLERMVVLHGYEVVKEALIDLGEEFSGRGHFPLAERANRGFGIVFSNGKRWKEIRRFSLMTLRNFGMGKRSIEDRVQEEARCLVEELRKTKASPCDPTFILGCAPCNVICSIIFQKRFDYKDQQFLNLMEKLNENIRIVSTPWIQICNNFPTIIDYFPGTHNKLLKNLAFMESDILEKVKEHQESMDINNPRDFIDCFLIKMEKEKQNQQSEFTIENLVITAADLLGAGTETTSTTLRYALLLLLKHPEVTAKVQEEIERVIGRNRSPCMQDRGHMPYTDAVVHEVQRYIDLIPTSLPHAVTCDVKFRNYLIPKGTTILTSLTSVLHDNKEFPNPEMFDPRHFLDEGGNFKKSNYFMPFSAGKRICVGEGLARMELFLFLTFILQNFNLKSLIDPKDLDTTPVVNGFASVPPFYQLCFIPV
Series [2] addresses T2, Cytochrome P450 3A4 (Homo sapiens, UniProt P08684). In words: Inhibition of human CYP3A4 using 7-benzyloxy-4-trifluoromethylcoumarin as substrate. It counts as ADME.
The target in series [3] is T2, Cytochrome P450 3A4. In words: Inhibition of human CYP3A4 using 7-benzyloxyquinoline as substrate. It is filed as ADME.
Series [4] addresses T2, Cytochrome P450 3A4. Briefly: Inhibition of human CYP3A4 using dibenzylfluorescein as substrate. It is filed as ADME.
Series [5] in a line: Oral bioavailability in rat at 10 mg/kg. It counts as ADME, organism-based. The conditions noted are these: in vivo.
Series [6] can be described thus: Cmax in rat at 10 mg/kg, po. It is filed as ADME, organism-based. The arrangement: dose 10 mg/kg, route oral. Particulars: in vivo.
Series [7] can be described thus: Half life in rat at 10 mg/kg, po. It is filed as ADME, organism-based. The arrangement: dose 10 mg/kg, route oral. The conditions noted are these: in vivo.

Broadly, the IC50 is the concentration at which inhibition is half-maximal. Read a high IC50 as weaker potency. The bioavailability is dose-corrected exposure relative to a reference, in per cent. Read a low bioavailability as poor availability. As usually defined, the Cmax is the highest concentration seen after dosing. Broadly, the half-life is the time needed for the level to fall by half in the phase considered.

Chain of C-C chemokine receptor type 2 (P41597 whole entry): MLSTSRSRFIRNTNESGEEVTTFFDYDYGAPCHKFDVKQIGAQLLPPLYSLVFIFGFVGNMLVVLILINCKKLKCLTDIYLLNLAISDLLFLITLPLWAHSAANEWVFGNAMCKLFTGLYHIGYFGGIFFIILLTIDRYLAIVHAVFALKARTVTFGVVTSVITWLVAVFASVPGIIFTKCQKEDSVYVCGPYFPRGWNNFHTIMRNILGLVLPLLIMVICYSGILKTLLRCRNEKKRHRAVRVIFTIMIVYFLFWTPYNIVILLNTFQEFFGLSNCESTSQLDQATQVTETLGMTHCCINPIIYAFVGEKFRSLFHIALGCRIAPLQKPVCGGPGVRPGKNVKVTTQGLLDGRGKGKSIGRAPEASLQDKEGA
T2 sequence (P08684 whole entry): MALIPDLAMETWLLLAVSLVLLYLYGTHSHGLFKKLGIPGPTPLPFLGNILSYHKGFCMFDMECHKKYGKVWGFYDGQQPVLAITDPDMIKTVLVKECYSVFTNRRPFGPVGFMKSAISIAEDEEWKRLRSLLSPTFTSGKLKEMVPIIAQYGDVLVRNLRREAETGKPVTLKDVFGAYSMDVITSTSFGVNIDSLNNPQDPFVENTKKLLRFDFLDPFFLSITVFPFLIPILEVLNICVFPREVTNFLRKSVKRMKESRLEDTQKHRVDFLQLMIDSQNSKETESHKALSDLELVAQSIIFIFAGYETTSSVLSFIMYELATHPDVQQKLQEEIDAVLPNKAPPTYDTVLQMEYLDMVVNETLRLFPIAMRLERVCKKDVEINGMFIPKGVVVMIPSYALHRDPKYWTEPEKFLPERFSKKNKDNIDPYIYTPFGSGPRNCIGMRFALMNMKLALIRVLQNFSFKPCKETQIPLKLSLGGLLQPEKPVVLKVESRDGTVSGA

`O=C(/C=C/c1cc(F)cc(F)c1)N1CCC(C(CO)N2CCC(c3c[nH]c4ncccc34)CC2)CC1` (racemic): in series [1], the IC50 worked out at 6 nM.
For `O=C(/C=C/c1cc(F)cc(F)c1)N1CCC([C@@H](CO)N2CCC(c3c[nH]c4ncccc34)CC2)CC1`, the IC50 in series [1] is 4 nM; against Cytochrome P450 1A2, above 40 µM; on Cytochrome P450 2D6, 13.3 µM; on Cytochrome P450 2C19, 27.1 µM; against Cytochrome P450 3A4 [2], 25.2 µM; against Cytochrome P450 3A4 [3], above 40 µM. For the same compound, the IC50 at Cytochrome P450 3A4 [4] worked out at 20.6 µM. Further, the bioavailability in series [5] was determined as 36%. The Cmax in series [6] was found to be 341 ng/mL. In [7], this compound showed a half-life of 336 min.
`O=C(O)C(C1CCN(C(=O)/C=C/c2cc(F)c(F)c(F)c2)CC1)N1CCC(c2c[nH]c3ncccc23)CC1` (stereo unspecified) had an IC50 in series [1] of 17 nM. That is a double-digit nanomolar value.
On the same count and under the same terms, with `O=C(/C=C/c1cc(F)c(F)c(F)c1)N1CCC(CN2CCC(c3c[nH]c4ncccc34)CC2)CC1` the figure was 1300 nM; with `O=C(Nc1ccc(Cl)c(Cl)c1)N1CCC(C(CO)N2CCC(c3c[nH]c4ncccc34)CC2)CC1` (racemic), 14 nM.
Same read-out and setting: with `O=C(/C=C/c1cc(F)c(F)c(F)c1)N1CCC(C(CO)N2CCC(c3c[nH]c4ncccc34)CC2)CC1` (racemic) the figure was 7 nM.
On the same count and under the same terms, next, `O=C(/C=C/c1ccc(Cl)c(Cl)c1)N1CCC(C(CO)N2CCC(c3c[nH]c4ncccc34)CC2)CC1` (racemic): 6 nM.
